Test results: PubChem BioAssay (NCI)
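The compound was tested at five concentrations on cells cultured in 96-well plates, with a 48-hour exposure period. GI50 is the concentration that inhibits growth by half. TGI marks complete inhibition of growth.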

What was measured:
Test in all cases: NCI anticancer screen, dose series, 48 h
ACHN renal = tested on: ACHN renal
CCRF-CEM leukemia = tested on: CCRF-CEM leukemia
MOLT-4 leukemia = tested on: MOLT-4 leukemia
NCI-H522 lung = tested on: NCI-H522 lung
SK-MEL-2 melanoma = tested on: SK-MEL-2 melanoma
UO-31 renal = tested on: UO-31 renal
DU-145 prostate = tested on: DU-145 prostate
HS 578T breast = tested on: HS 578T breast
MDA-MB-231 breast = tested on: MDA-MB-231 breast
RXF 393 renal = tested on: RXF 393 renal

Structure (SMILES) | TGI (ACHN renal) [µM] | TGI (CCRF-CEM leukemia) [µM] | TGI (MOLT-4 leukemia) [µM] | TGI (NCI-H522 lung) [µM] | TGI (SK-MEL-2 melanoma) [µM] | TGI (UO-31 renal) [µM] | GI50 (ACHN renal) [µM] | GI50 (CCRF-CEM leukemia) [µM] | GI50 (DU-145 prostate) [µM] | TGI (DU-145 prostate) [µM] | GI50 (HS 578T breast) [µM] | TGI (HS 578T breast) [µM] | GI50 (MDA-MB-231 breast) [µM] | TGI (MDA-MB-231 breast) [µM] | GI50 (NCI-H522 lung) [µM] | GI50 (RXF 393 renal) [µM] | TGI (RXF 393 renal) [µM] | GI50 (SK-MEL-2 melanoma) [µM] | GI50 (UO-31 renal) [µM] | GI50 (MOLT-4 leukemia) [µM]
CN(C)c1ccc(/C=C/C(=O)c2ccccc2)cc1Br | 51.1 | 62.7 | 69 | 31.4 | 44.5 | 33.3 |  |  |  |  |  |  |  |  |  |  |  |  |  | 
O=c1oc2c3ccc4ccccc4c3n(CCN3CCOCC3)c2c2ccccc12 | > 100 | 15.2 | 18.5 | > 100 |  | > 100 |  |  |  |  |  |  |  |  |  |  |  |  |  | 
O=C(CCCCC(=O)N/N=C\c1ccccc1Cl)N/N=C\c1ccccc1Cl | > 100 | > 100 |  | 41.1 | 33.9 | > 100 | 1.91 | > 100 | 8.33 | > 100 | 2.02 | 49 | 12.5 | 55.7 | 2.13 | 11 | 32.7 | 12.5 | 3.32 | 
COCC1C(=O)c2cc3c(cc2C12C=CC1(C=C2)OCCO1)OCO3 (stereo not given) | 25.3 | 4.38 | 9.6 | 3.96 | 24.5 |  |  |  |  |  |  |  |  |  |  |  | 20.9 |  |  | 
O=c1c2cc(Br)ccc2[nH]c(=S)n1-c1ccc(Br)cc1 | > 100 |  | > 100 | > 100 | > 100 | > 100 |  |  |  |  |  |  |  |  |  |  | > 100 |  |  | 
COc1cc(C2c3cc4c(cc3[C@H](NC(=O)c3cccs3)C3COC(=O)[C@H]23)OCO4)cc(OC)c1OC (stereo not given in full) | 18.7 |  | 24.5 | 0.0213 | > 100 | > 44.3 |  |  |  |  |  |  |  | 0.0128 |  |  | 0.0543 |  |  | 
O=C(CC1(O)C(=O)Nc2c(Cl)cccc21)c1ccccc1 (stereo not given) | > 100 | > 100 | > 100 | > 100 | > 100 | > 100 |  |  |  |  |  |  |  |  |  |  | > 100 |  |  | 
CN(C)CCCNC(=O)c1cc(NC(=O)CCNC(=O)c2ccc3c(c2)C(=O)c2ccccc2C3=O)cn1C |  | > 100 | > 100 | > 100 | > 100 | > 100 |  | 64.1 |  |  | > 100 | > 100 | > 100 | > 100 | > 100 | > 100 | > 100 | > 100 | > 100 | 37.4
C[As](C)Sc1ccnc(S[As](C)C)n1 | 15.1 |  |  | 27.8 |  | 26.9 | 1.85 | 1.34 | 5.98 | > 39.7 | 1.99 | 17.7 | 2.62 | 15.8 | 0.918 | 3.2 | 20.1 |  | 3.73 | 1.43
COc1ccc(C(=O)C(c2ccc(OC)cc2)C2C(=O)Oc3ccccc32)cc1 (stereo not given) | > 100 | > 100 | > 100 | > 100 | > 100 | 51.1 | > 100 | > 100 |  |  |  |  |  |  | > 100 | > 100 | > 100 | > 100 |  | > 100
